{"source": "patent US20180371021A1", "about": "“PEPTIDOMIMETIC MACROCYCLES AND USES THEREOF” (Aileron Therapeutics, Inc., priority 2017, published 2018)", "key": {"[1]": {"system": "MCF-7 breast cancer xenograft", "assay": "MCF-7 breast cancer xenograft study using SP315, SP249 and SP154", "assay_type": "in vivo, mice", "description": "Slow release 90 day 0.72 mg 17β-estradiol pellets were implanted subcutaneously (sc) on the nape of the neck one day prior to tumor cell implantation (Day −1). On Day 0, MCF-7 tumor cells were implanted sc in the flank of female nude (Cr1:NU-Foxn1nu) mice. On Day 18, the resultant sc tumors were measured using calipers to determine their length and width, and the mice were weighed. The tumor sizes were calculated using the formula (length×width^2)/2, and expressed as cubic millimeters (mm^3). Mice with tumors smaller than 85.3 mm^3 or larger than 417.4 mm^3 were excluded from the subsequent group formation. Thirteen groups of mice, 10 mice per group, were formed by randomization such that the group mean tumor sizes were essentially equivalent (mean of groups±standard deviation of groups=180.7±17.5 mm^3).\nThe peptide formulations were prepared once for the duration of the study. The vehicle was used as the vehicle control in the subsequent study.\nEach group was assigned to a different treatment regimen. Group 1, as the vehicle negative control group, received the vehicle administered at 8 mL/kg body weight intravenously (I.V.) three times per week from Days 18-39. […] Group 4 received 6.7 mg/kg SP249 as an I.V. injection three times per week. […] Group 9 received 30 mg/kg SP252 as an I.V. injection three times per week.\nDuring the dosing period, the mice were weighed and the tumors were measured 1-2 times per week. Tumor growth inhibition was compared with the vehicle group. Tumor growth inhibition (TGI) was calculated as\nwhere x=day that effect of treatment is being assessed."}, "[2]": {"system": "MCF-7.1 human breast carcinoma xenograft", "assay": "MCF-7.1 human breast carcinoma xenograft model, AP1 and palbociclib", "assay_type": "in vivo, mice", "conditions": "AP1 20 mg/kg qwkx4, palbociclib 75 mg/kg qdx22", "description": "Female athymic nude mice were provided with drinking water with 10 μg/mL with 17 beta estradiol supplementation 3 days prior to cell implantation and for the duration of the study. […] The mice were between 8-12 weeks of age at the beginning of the study. […] The group was not euthanized, and the mice were allowed to recover. […] Animals were monitored individually. […] Responders were followed for a longer period of time. When the endpoint was reached, the animals were euthanized. […] An aqueous phosphate-buffered saline solution or sodium lactate (50 mM, pH 4.0) solution was used as the vehicle."}, "[3]": {"system": "SJSA-1 osteosarcoma xenograft", "assay": "SJSA-1 osteosarcoma xenograft model, AP1 and palbociclib", "assay_type": "in vivo, mice", "conditions": "AP1 20 mg/kg qwkx4, palbociclib 75 mg/kg qdx22", "description": "The group was not euthanized, and the mice were allowed to recover. […] Animals were monitored individually. […] Responders were followed for a longer period of time. When the endpoint was reached, the animals were euthanized. […] An aqueous phosphate-buffered saline solution or sodium lactate (50 mM, pH 4.0) solution was used as the vehicle."}, "A549 xenograft": {"system": "A549 xenograft", "assay": "A549 xenograft model, AP1 and palbociclib", "assay_type": "in vivo, mice", "conditions": "AP1 20 mg/kg qwkx4, palbociclib 75 mg/kg qdx22", "from_the_text": "The arrows indicate spontaneous tumor shrinkage in vehicle controls. The arrows with * indicate poor growth of tumors late in the study."}, "[4]": {"conditions": "39 patients treated with nivolumab; 30 patients treated with pembrolizumab; cited from earlier work"}, "[5]": {"conditions": "d22, calculated using vehicle median volumes on d0 and d22"}, "[6]": {"conditions": "three consecutive measurements > 150% of d1 volume"}}, "note": "Bridge positions count the residues as written; N and C are the ends. Square brackets hold non-standard residues; d marks the D form. Peptide text beside a SMILES is read from it. Phe(4-COOH) = N[C@@H](Cc1ccc(C(=O)O)cc1)C(=O)O; R8 = C=CCCCCCC[C@@](C)(N)C(=O)O; Cba = N[C@@H](CC1CCC1)C(=O)O; S5 = C=CCCC[C@](C)(N)C(=O)O"}
{"compound": "CC[C@H](C)[C@H](NC(=O)[C@H](C)NC(=O)[C@H](C)NC(=O)[C@]1(C)CCCC=CCCCCCC[C@@](C)(NC(=O)[C@H](Cc2ccccc2)NC(=O)[C@@H](NC(=O)[C@H](CC(C)C)NC(C)=O)[C@@H](C)O)C(=O)N[C@@H](CCC(=O)O)C(=O)N[C@@H](Cc2ccc(C(=O)O)cc2)C(=O)N[C@@H](Cc2c[nH]c3ccccc23)C(=O)N[C@@H](C)C(=O)N[C@@H](CCC(N)=O)C(=O)N[C@@H](CC2CCC2)C(=O)N1)C(=O)N[C@H](C)C(N)=O", "note": "[SP249] (Ac-LTF[R8]E[Phe(4-COOH)]WAQ[Cba][S5]AAI[dA]-NH2; staple 4-11)", "values": [{"measurement": "mice died", "setting": "[1]; […] three times per week", "value": 4}]}
{"compound": "CC(=O)N[C@@H](CC(C)C)C(=O)N[C@H](C(=O)N[C@@H](C)C(=O)N[C@]1(C)CCCCCCC=CCCC[C@@](C)(C(=O)N[C@@H](CO)C(=O)N[C@@H](C)C(=O)N[C@@H](C)C(N)=O)NC(=O)[C@H](CC2CCC2)NC(=O)[C@H](CCC(N)=O)NC(=O)[C@H](C)NC(=O)[C@H](Cc2c[nH]c3ccccc23)NC(=O)[C@H](Cc2ccc(O)cc2)NC(=O)[C@H](CCC(=O)O)NC1=O)[C@@H](C)O", "note": "[SP252]", "values": [{"measurement": "body weight loss or deaths", "setting": "[1]; 30 mg/kg three times per week", "value": "No body weight loss or deaths"}, {"measurement": "TGI", "setting": "[1]; 30 mg/kg three times per week, day 32", "value": 88, "unit": "%"}]}
{"compound": "CC(=O)c1c(C)c2cnc(Nc3ccc(N4CCNCC4)cn3)nc2n(C2CCCC2)c1=O", "note": "[palbociclib, reference compound]", "values": [{"measurement": "Median tumor volume (mm^3) D1", "setting": "[2]; D1 (start of dosing), MCF-7.1 xenograft, nude mice", "value": 108, "unit": "mm^3"}, {"measurement": "Median tumor volume (mm^3) D22", "setting": "[2]; D22, MCF-7.1 xenograft, nude mice", "value": 196, "unit": "mm^3"}, {"measurement": "Median time to tumor volume > 500 mm^3", "setting": "[2]; MCF-7.1 xenograft", "value": 37, "unit": "days"}, {"measurement": "Median time to tumor volume > 1000 mm^3", "setting": "[2]; MCF-7.1 xenograft", "value": 48, "unit": "days"}, {"measurement": "% TGI (±SEM) on d22 (end of dosing)", "setting": "[2]; [5]", "value": "84 (4) %"}, {"measurement": "Animals with disease progression", "setting": "[2]; [6]", "value": "8/8"}, {"measurement": "Median tumor volume (mm^3) D1", "setting": "[3]; D1 (start of dosing), SJSA-1 xenograft, nude mice", "value": 126, "unit": "mm^3"}, {"measurement": "Median tumor volume (mm^3) D22", "setting": "[3]; D22, SJSA-1 xenograft, nude mice", "value": 1418, "unit": "mm^3"}, {"measurement": "Median time to tumor volume > 1000 mm^3", "setting": "[3]; SJSA-1 xenograft", "value": 18, "unit": "days"}, {"measurement": "Median time to tumor volume > 2000 mm^3", "setting": "[3]; SJSA-1 xenograft", "value": 24, "unit": "days"}, {"measurement": "% TGI (±SEM) on d22 (end of dosing)", "setting": "[3]; [5]", "value": "51 (9) %"}, {"measurement": "Animals with disease progression", "setting": "[3]; [6]", "value": "9/10"}, {"measurement": "Median tumor volume (mm^3) D1", "setting": "A549 xenograft; D1 (start of dosing), A549 xenograft, nude mice", "value": 126, "unit": "mm^3"}, {"measurement": "Median tumor volume (mm^3) D22", "setting": "A549 xenograft; D22, A549 xenograft, nude mice", "value": 288, "unit": "mm^3"}, {"measurement": "% TGI (±SEM) on d22 (end of dosing)", "setting": "A549 xenograft; [5]", "value": "62 (7) %"}, {"measurement": "Animals with disease progression", "setting": "A549 xenograft; [6]", "value": "9/10"}]}
{"compound": "nivolumab: PD-1/PD-L1 antagonist", "values": [{"measurement": "PRs", "setting": "[4]", "value": 2}, {"measurement": "SDs", "setting": "[4]", "value": 12}, {"measurement": "complete responses", "setting": "[4]", "value": 1}, {"measurement": "shrinkages among SDs", "setting": "[4]", "value": 2}]}
{"compound": "pembrolizumab: PD-1/PD-L1 antagonist", "values": [{"measurement": "PRs", "setting": "[4]", "value": 3}, {"measurement": "SDs", "setting": "[4]", "value": 11}, {"measurement": "complete responses", "setting": "[4]", "value": 2}, {"measurement": "shrinkages among SDs", "setting": "[4]", "value": 3}]}
